{"source": "patent US20130029909A1", "about": "“TREATMENT OF CANCER” (priority 2009, published 2013)", "key": {"H1299 cells [1]": {"system": "H1299 cells", "test": "H1299 human NSCLC xenograft model in nu/nu mice", "details": "for median tumor volume (MTV) of survivors: D74, gemcitabine 120 mg/kg (five TFS), docetaxel 30 mg/kg (two D74 survivors); for tumor-free survival (TFS): 74 days post first treatment, CRLX101 10 mg/kg qwk×3, gemcitabine 120 mg/kg q3d×4, topotecan 12 mg/kg q4d×3", "method": "(§1) Animals were randomly divided into seven groups and treatment was started on day-15 post implantation, when the mean tumor volume was approximately 115 mm^3.\n(§2) Body weight was measured daily on Days 1-5, then twice weekly until the completion of the study. Tumor volume was measured twice weekly and each animal was euthanized when the calculated tumor volume reached the 2000 mm^3 endpoint, or on day-88 post implantation, whichever came first."}, "H1299 cells [2]": {"system": "H1299 cells", "details": "mouse, in vivo", "method": "as §1, §2"}, "[3]": {"system": "human ovarian carcinoma A2780 cells", "details": "72 h, MTS", "method": "The human ovarian carcinoma A2780 cells were obtained from the American Type Culture Collection. […] The medium was replaced with fresh medium containing the test compound at concentrations ranging from 0.01 nmol/L to 1 μmol/L. Triplicate wells per plate were treated at each concentration. Controls were vehicle-treated cells and medium only blank. […] MTS assay reagent was prepared by diluting CellTiter 96 AQueous One Solution (Promega) 5-fold into PBS/glucose (4.5 g/L). Cell culture medium was aspirated and 100 μL of MTS reagent were added to each well. Plates were incubated at 37° C. for 1 h. The plates were shaken for 5 min and the absorbance was measured at 485 nm using a [sequence]uor Plus plate reader (Tecan). The percentage of cell survival was calculated relative to untreated cells, and IC50s were estimated from the graphs of log dose (nmol/L) versus % cell survival (GraphPad Prizm)."}}, "note": "Where two headings read alike, the source gives them in different places.", "data": [{"smiles": "CC(=O)O[C@@]12CO[C@@H]1C[C@H](O)[C@@]1(C)C(=O)[C@H](O)C3=C(C)[C@@H](OC(=O)[C@H](O)[C@@H](NC(=O)OC(C)(C)C)c4ccccc4)C[C@@](O)([C@@H](OC(=O)c4ccccc4)[C@H]21)C3(C)C", "note": "[Docetaxel, docetaxel]", "values": [{"measurement": "median tumor volume (MTV) of survivors", "setting": "H1299 cells [1]", "result": 302, "unit": "mm3"}, {"measurement": "group mean body weight loss", "setting": "H1299 cells [1]; docetaxel 30 mg/kg on D21", "result": 9.3, "unit": "%"}, {"measurement": "survival", "setting": "H1299 cells [1]; docetaxel 30 mg/kg qwk×3, D74, no TFS", "result": 20, "unit": "%"}, {"measurement": "BW Nadir (lowest group mean body weight, as % change from Day 1)", "setting": "H1299 cells [1]; same regimens as E168, '—' indicates that no decrease in mean body weight was observed", "result": "−9.3", "unit": "%"}]}, {"smiles": "C#Cc1cccc(Nc2ncnc3cc(OCCOC)c(OCCOC)cc23)c1", "note": "[Erlotinib, erlotinib]", "values": [{"measurement": "BW Nadir (lowest group mean body weight, as % change from Day 1)", "setting": "H1299 cells [2]", "result": "−2.9", "unit": "%"}]}, {"smiles": "Nc1ccn([C@@H]2O[C@H](CO)[C@@H](O)C2(F)F)c(=O)n1", "note": "[Gemcitabine, gemcitabine]", "values": [{"measurement": "tumor-free survival (TFS)", "setting": "H1299 cells [1]", "result": 50, "unit": "%"}, {"measurement": "median tumor volume (MTV) of survivors", "setting": "H1299 cells [1]", "result": 0, "unit": "mm3"}, {"measurement": "BW Nadir (lowest group mean body weight, as % change from Day 1)", "setting": "H1299 cells [2]", "result": "−2.3", "unit": "%"}]}, {"smiles": "CC[C@@]1(O)C(=O)OCc2c1cc1n(c2=O)Cc2cc3c(CN(C)C)c(O)ccc3nc2-1", "note": "[Topotecan, topotecan]", "values": [{"measurement": "tumor-free survival (TFS)", "setting": "H1299 cells [1]", "result": 10, "unit": "%"}, {"measurement": "BW Nadir (lowest group mean body weight, as % change from Day 1)", "setting": "H1299 cells [2]", "result": "−0.6", "unit": "%"}]}, {"smiles": "CCc1c2c(nc3ccc(O)cc13)-c1cc3c(c(=O)n1C2)COC(=O)[C@]3(O)CC", "note": "[SN-38, 20(S)-7-ethyl-10-hydroxycamptothecin]", "values": [{"measurement": "IC50", "setting": "[3]", "result": 2.44, "unit": "nM"}]}]}
